One assay has as its target T1, B-RAF V600E (Homo sapiens, UniProt P15056, V600E).
T1 construct: expressed in transfected cells; host or cells: T-Rex 293 cells (Invitrogen #R71007)
The assay is described as follows: Target protein degradation, assay C: T-Rex 293 cells, HA-BRAF_V600E, 384 well format. Type of assay: cell-based. The note with it: T-Rex 293 HA-BRAF_V600E cells, 24 hours, Examples 83-269; for DC50: Assay C; for Dmax: T-REx-293, Assay C. In outline: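 T-Rex 293 cells stably expressing doxycycline-induced (1 ng/mL) HA-BRAF V600E were treated 24 h at 37 °C with compound (300 nM–5 pM, 11 points, 0.5% DMSO). HA immunofluorescence was quantified by high-content imaging to give DC50 and Dmax (% of control); nuclei counts versus DMSO gauged toxicity.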

In another assay the target is T2, B-RAF G466V (Homo sapiens, UniProt P15056, G466V).
T2 construct: expressed in transfected cells; host or cells: T-Rex 293 cells (Invitrogen #R71007)
As to the kind of experiment: Target protein degradation, assay D: T-Rex 293 cells, HA-BRAF_G466V, 384 well format. It counts as cell-based. The conditions noted are these: T-Rex 293 HA-BRAF_G466V cells, 24 hours, Examples 83-269; for DC50: Assay D; for Dmax: T-REx-293, Assay D. In outline:
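T-Rex 293 cells stably expressing doxycycline-induced (1 ng/mL) HA-BRAF G466V treated 24 h at 37 °C with PROTACs, 11-point 1:3 dilution, 300 nM to 5 pM final, 0.5% DMSO. Fixed cells immunostained for HA and imaged by high-content microscopy; DC50 and Dmax (% of control) derived, toxicity from nuclei counts versus DMSO.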

T2 sequence (P15056 whole entry G466V): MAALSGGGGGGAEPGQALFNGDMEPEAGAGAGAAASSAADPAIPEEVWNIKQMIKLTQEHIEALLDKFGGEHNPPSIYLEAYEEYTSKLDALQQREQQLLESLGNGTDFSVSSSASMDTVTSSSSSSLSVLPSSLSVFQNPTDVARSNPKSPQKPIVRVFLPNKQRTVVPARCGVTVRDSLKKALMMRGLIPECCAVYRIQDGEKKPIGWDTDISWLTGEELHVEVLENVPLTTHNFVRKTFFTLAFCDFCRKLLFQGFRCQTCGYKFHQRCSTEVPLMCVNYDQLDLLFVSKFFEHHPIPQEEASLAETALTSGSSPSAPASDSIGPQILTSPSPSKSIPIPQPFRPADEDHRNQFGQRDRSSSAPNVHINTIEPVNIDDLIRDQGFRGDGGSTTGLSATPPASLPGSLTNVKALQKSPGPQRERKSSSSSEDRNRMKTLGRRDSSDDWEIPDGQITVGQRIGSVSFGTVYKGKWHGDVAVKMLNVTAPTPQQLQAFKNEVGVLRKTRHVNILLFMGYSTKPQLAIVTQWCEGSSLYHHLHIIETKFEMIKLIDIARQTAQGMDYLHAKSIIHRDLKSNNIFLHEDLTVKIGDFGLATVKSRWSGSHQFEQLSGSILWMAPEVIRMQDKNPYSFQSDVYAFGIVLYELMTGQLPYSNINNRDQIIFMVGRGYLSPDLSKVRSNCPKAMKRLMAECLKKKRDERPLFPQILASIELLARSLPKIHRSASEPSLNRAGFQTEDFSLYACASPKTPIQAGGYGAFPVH
T1 sequence (P15056 whole entry V600E): as the sequence (P15056 whole entry G466V) above, with V466G, V600E counted along it

As usually defined, the DC50 is the concentration giving 50% degradation. Read a high DC50 as a less potent degrader. What is called Dmax is the greatest extent of degradation seen. Higher therefore signals a fuller loss of target. Regarding `N#Cc1c(NS(=O)(=O)N2CC[C@@H](F)C2)ccc(F)c1Oc1ccc2ncn(-c3ccc(N4CCN(CC5CCN(c6ccc7c(c6F)CN([C@H]6CCC(=O)NC6=O)C7=O)CC5)CC4)cn3)c(=O)c2c1` [Example 114, (3R)-N-(2-cyano-3-{[3-(5-{4-[(1-{2-[(3S)-2,6-dioxopiperidin-3-yl]-4-fluoro-1-oxo-2,3-dihydro-1H-isoindol-5-yl}piperidin-4-yl)methyl]piperazin-1-yl}pyridin-2-yl)-4-oxo-3,4-dihydroquinazolin-6-yl]oxy}-4-fluorophenyl)-3-fluoropyrrolidine-1-sulfonamide], the half-maximal degradation concentration (DC50) on B-RAF V600E fell in the range of 50 to 500 nM; on B-RAF G466V, 1 to 10 nM. Further, the Dmax was at most 35% at B-RAF V600E and 35 to 70% at B-RAF G466V.
For `N#Cc1c(NS(=O)(=O)N2CC[C@@H](F)C2)ccc(F)c1Oc1ccc2ncn(-c3cnc(N4CCN(c5ccc6c(c5)CN(C5CCC(=O)NC5=O)C6=O)CC4)nc3)c(=O)c2c1` (stereo partly drawn) [Example 127, (3R)-N-(2-cyano-3-{[3-(2-{4-[2-(2,6-dioxopiperidin-3-yl)-1-oxo-2,3-dihydro-1H-isoindol-5-yl]piperazin-1-yl}pyrimidin-5-yl)-4-oxo-3,4-dihydroquinazolin-6-yl]oxy}-4-fluorophenyl)-3-fluoropyrrolidine-1-sulfonamide], at B-RAF V600E, the DC50 lay in the range of 50 to 500 nM and the Dmax was 35 to 70%. At B-RAF G466V, the DC50 was over 30 nM.
On B-RAF V600E, `N#Cc1c(NS(=O)(=O)N2CC[C@@H](F)C2)ccc(F)c1Oc1ccc2ncn(-c3cnc(N4CCC(CN5CCC6(CC5)CCN(c5ccc7c(c5)C(=O)N(C5CCC(=O)NC5=O)C7=O)CC6)CC4)nc3)c(=O)c2c1` (stereo partly drawn) [Example 129, (3R)-N-{2-cyano-3-[(3-{2-[4-({9-[2-(2,6-dioxopiperidin-3-yl)-1,3-dioxo-2,3-dihydro-1H-isoindol-5-yl]-3,9-diazaspiro[5.5]undecan-3-yl}methyl)piperidin-1-yl]pyrimidin-5-yl}-4-oxo-3,4-dihydroquinazolin-6-yl)oxy]-4-fluorophenyl}-3-fluoropyrrolidine-1-sulfonamide] displayed a DC50 of 50 to 500 nM and a Dmax of 35 to 70%. On B-RAF G466V, this molecule displayed a DC50 of 1 to 10 nM and a Dmax of 35 to 70%.
In turn, `N#Cc1c(NS(=O)(=O)N2CC[C@@H](F)C2)ccc(F)c1Oc1ccc2ncn(-c3cnc(N4CCCC4CC4CCN(c5ccc6c(c5)C(=O)N(C5CCC(=O)NC5=O)C6=O)CC4)nc3)c(=O)c2c1` (stereo partly drawn) [Example 130, (3R)-N-{2-cyano-3-[(3-{2-[2-({1-[2-(2,6-dioxopiperidin-3-yl)-1,3-dioxo-2,3-dihydro-1H-isoindol-5-yl]piperidin-4-yl}methyl)pyrrolidin-1-yl]pyrimidin-5-yl}-4-oxo-3,4-dihydroquinazolin-6-yl)oxy]-4-fluorophenyl}-3-fluoropyrrolidine-1-sulfonamide] gave a DC50 on B-RAF V600E of over 500 nM. Also, on B-RAF G466V, the half-maximal degradation concentration (DC50) is 10 to 30 nM and the Dmax was at most 35%.
As for `N#Cc1c(NS(=O)(=O)N2CC[C@@H](F)C2)ccc(F)c1Oc1ccc2ncn(-c3cnc(N4CCC(CN5CCC6(CC5)CN(c5cccc7c5CN(C5CCC(=O)NC5=O)C7=O)C6)CC4)nc3)c(=O)c2c1` (stereo partly drawn) [Example 131, (3R)-N-{2-cyano-3-[(3-{2-[4-({2-[2-(2,6-dioxopiperidin-3-yl)-1-oxo-2,3-dihydro-1H-isoindol-4-yl]-2,7-diazaspiro[3.5]nonan-7-yl}methyl)piperidin-1-yl]pyrimidin-5-yl}-4-oxo-3,4-dihydroquinazolin-6-yl)oxy]-4-fluorophenyl}-3-fluoropyrrolidine-1-sulfonamide], on B-RAF V600E, the DC50 was 50 to 500 nM and the greatest degradation seen (Dmax) is 35 to 70%. Moreover, at B-RAF G466V, the DC50 fell in the range of 1 to 10 nM and the Dmax was at most 35%.
Taken in the same sequence, the figures for `N#Cc1c(NS(=O)(=O)N2CC[C@@H](F)C2)ccc(F)c1Oc1ccc2ncn(-c3cnc(N4CCC(CN5CC6(CCN(c7ccc8c(c7)CN(C7CCC(=O)NC7=O)C8=O)CC6)C5)CC4)nc3)c(=O)c2c1` (stereo partly drawn) [Example 132, (3R)-N-{2-cyano-3-[(3-{2-[4-({7-[2-(2,6-dioxopiperidin-3-yl)-1-oxo-2,3-dihydro-1H-isoindol-5-yl]-2,7-diazaspiro[3.5]nonan-2-yl}methyl)piperidin-1-yl]pyrimidin-5-yl}-4-oxo-3,4-dihydroquinazolin-6-yl)oxy]-4-fluorophenyl}-3-fluoropyrrolidine-1-sulfonamide] were 50 to 500 nM, 35 to 70%, at most 1 nM and 35 to 70%.
Taken in the same sequence, the figures for `N#Cc1c(NS(=O)(=O)N2CC[C@@H](F)C2)ccc(F)c1Oc1ccc2ncn(-c3cnc(N4CCC(CN5CC6(C5)CN(c5ccc7c(c5)C(=O)N(C5CCC(=O)NC5=O)C7=O)C6)CC4)nc3)c(=O)c2c1` (stereo partly drawn) [Example 133, (3R)-N-{2-cyano-3-[(3-{2-[4-({6-[2-(2,6-dioxopiperidin-3-yl)-1,3-dioxo-2,3-dihydro-1H-isoindol-5-yl]-2,6-diazaspiro[3.3]heptan-2-yl}methyl)piperidin-1-yl]pyrimidin-5-yl}-4-oxo-3,4-dihydroquinazolin-6-yl)oxy]-4-fluorophenyl}-3-fluoropyrrolidine-1-sulfonamide] were 50 to 500 nM, 35 to 70%, 1 to 10 nM and 35 to 70%.
For `N#Cc1c(NS(=O)(=O)N2CC[C@@H](F)C2)ccc(F)c1Oc1ccc2ncn(-c3cnc(N4CC5(CN(CC6CCN(c7ccc8c(c7)C(=O)N(C7CCC(=O)NC7=O)C8=O)CC6)C5)C4)nc3)c(=O)c2c1` (stereo partly drawn) [Example 134, (3R)-N-{2-cyano-3-[(3-(2-[6-({1-[2-(2,6-dioxopiperidin-3-yl)-1,3-dioxo-2,3-dihydro-1H-isoindol-5-yl]piperidin-4-yl}methyl)-2,6-diazaspiro[3.3]heptan-2-yl]pyrimidin-5-yl}-4-oxo-3,4-dihydroquinazolin-6-yl)oxy]-4-fluorophenyl}-3-fluoropyrrolidine-1-sulfonamide], in that order: 50 to 500 nM, 35 to 70%, 1 to 10 nM and 35 to 70%.
Consider `N#Cc1c(NS(=O)(=O)N2CC[C@@H](F)C2)ccc(F)c1Oc1ccc2ncn(-c3ccc(N4CCC(c5ccc6c(c5)C(=O)N(C5CCC(=O)NC5=O)C6=O)CC4)nc3)c(=O)c2c1` (stereo partly drawn) [Example 135, (3R)-N-(2-cyano-3-{[3-(6-{4-[2-(2,6-dioxopiperidin-3-yl)-1,3-dioxo-2,3-dihydro-1H-isoindol-5-yl]piperidin-1-yl}pyridin-3-yl)-4-oxo-3,4-dihydroquinazolin-6-yl]oxy}-4-fluorophenyl)-3-fluoropyrrolidine-1-sulfonamide], for which the results for the DC50 on B-RAF V600E and at B-RAF G466V were over 500 nM and over 30 nM, respectively.
Take `N#Cc1c(NS(=O)(=O)N2CC[C@@H](F)C2)ccc(F)c1Oc1ccc2ncn(-c3ccc(N4CCC(c5ccc6c(c5)CN(C5CCC(=O)NC5=O)C6=O)CC4)nc3)c(=O)c2c1` (stereo partly drawn) [Example 136, (3R)-N-(2-cyano-3-{[3-(6-{4-[2-(2,6-dioxopiperidin-3-yl)-1-oxo-2,3-dihydro-1H-isoindol-5-yl]piperidin-1-yl}pyridin-3-yl)-4-oxo-3,4-dihydroquinazolin-6-yl]oxy}-4-fluorophenyl)-3-fluoropyrrolidine-1-sulfonamide]: at B-RAF V600E, the DC50 fell in the range of 5 to 50 nM and the Dmax is at most 35%. On B-RAF G466V, this molecule yielded a DC50 of 1 to 10 nM and a Dmax of 35 to 70%.
On B-RAF V600E, `N#Cc1c(NS(=O)(=O)N2CC[C@@H](F)C2)ccc(F)c1Oc1ccc2ncn(-c3ccc(N4CCC(CN5CCC(Oc6cccc7c6C(=O)N(C6CCC(=O)NC6=O)C7=O)CC5)CC4)nc3)c(=O)c2c1` (stereo partly drawn) [Example 137, (3R)-N-(2-cyano-3-{[3-(6-{4-[(4-{[2-(2,6-dioxopiperidin-3-yl)-1,3-dioxo-2,3-dihydro-1H-isoindol-4-yl]oxy}piperidin-1-yl)methyl]piperidin-1-yl}pyridin-3-yl)-4-oxo-3,4-dihydroquinazolin-6-yl]oxy}-4-fluorophenyl)-3-fluoropyrrolidine-1-sulfonamide] displayed a DC50 of over 500 nM. For the same molecule, on B-RAF G466V, the half-maximal degradation concentration (DC50) is over 30 nM and the Dmax is at most 35%.
Consider `COc1cc(N2CCN(CC3CCN(c4ccc(-n5cnc6ccc(Oc7c(F)ccc(NS(=O)(=O)N8CC[C@@H](F)C8)c7C#N)cc6c5=O)cn4)CC3)CC2)cc2c1C(=O)N(C1CCC(=O)NC1=O)C2=O` (stereo partly drawn) [Example 138, (3R)-N-{2-cyano-3-[(3-{6-[4-({4-[2-(2,6-dioxopiperidin-3-yl)-7-methoxy-1,3-dioxo-2,3-dihydro-1H-isoindol-5-yl]piperazin-1-yl}methyl)piperidin-1-yl]pyridin-3-yl}-4-oxo-3,4-dihydroquinazolin-6-yl)oxy]-4-fluorophenyl}-3-fluoropyrrolidine-1-sulfonamide], for which, at B-RAF V600E, the 50% degradation concentration (DC50) lay within 50 to 500 nM and the Dmax is at most 35%. Further, at B-RAF G466V, the DC50 lay within 1 to 10 nM and the Dmax was at most 35%.
For `COc1cc(N2CCN(c3ccc(-n4cnc5ccc(Oc6c(F)ccc(NS(=O)(=O)N7CC[C@@H](F)C7)c6C#N)cc5c4=O)cn3)CC2)cc2c1C(=O)N(C1CCC(=O)NC1=O)C2=O` (stereo partly drawn) [Example 139, (3R)-N-(2-cyano-3-{[3-(6-{4-[2-(2,6-dioxopiperidin-3-yl)-7-methoxy-1,3-dioxo-2,3-dihydro-1H-isoindol-5-yl]piperazin-1-yl}pyridin-3-yl)-4-oxo-3,4-dihydroquinazolin-6-yl]oxy}-4-fluorophenyl)-3-fluoropyrrolidine-1-sulfonamide], at B-RAF V600E, the 50% degradation concentration (DC50) fell in the range of 5 to 50 nM and the Dmax is at most 35%. For the same molecule, the DC50 at B-RAF G466V was over 30 nM.

The values above are taken from patent US11957759B1, “Rapidly accelerated fibrosarcoma (RAF) degrading compounds and associated methods of use” (Arvinas Operations, Inc., priority 2022, dated 2024).
